This note sets out measurements from patent US7662388B2, “Endogenous peptide and active subfragments thereof” (Innoventus Project AB, priority 2003, dated 2010).

Holding throughout (type): cell-based, bovine
The test system of assay [1] is primary BCE cells. Description: chemotaxis (migration) assay in modified Boyden chamber, BCE cells. The procedure:
The porcine aortic endothelial (PAE) cell line overexpressing FGF receptor-1 (FGFR-1) (Wennström et al 1992) was cultured in Ham's F12/10% fetal bovine serum (FCS) and NIH 3T3 murine fibroblasts were cultured in Dulbecco's modified medium (DMEM)/10% newborn calf serum (NCS). F12, DMEM and serum were bought from Life Technologies. Primary bovine adrenal cortex capillary endothelial (BCE) cells were cultured on gelatin-coated dishes in DMEM/10% NCS and 2 ng/ml FGF-2 (Boehringer Mannheim). For chemotaxis assays, both PAE and NIH 3T3 cells were serum-starved over night in 0.1% BSA and BCE cells in 0.5% NCS. Human embryonic kidney (HEK) 293-EBNA cells were cultured in DMEM/10% FCS. Approximately every second month they were given 0.25 mg/ml G418 (Calbiochem) to ensure positive selection of the EBNA-1 expressing cells.
A migration assay was performed in a modified Boyden chamber as described earlier (Auerbach et al., 1991) using micropore polycarbonate filters (8 μm thick, 8 μm pore) coated with type-1 collagen solution at 100 μg/ml (Vitrogen 100, Collagen Corp). BCE, PAE/FGFR-1 or NIH 3T3 cells were preincubated or not with HRGP (100 ng/ml) for 30 min, trypsinised and resuspended at a concentration of 7.5×10^5 cells/ml in Dulbecco's modified essential medium (Invitrogen) containing 0.25% BSA and Trasylol at 1000 KIE. FGF-2 and VEGF-A was used at 5 ng/ml, HRGP and the protein C inhibitor (PCI) at 100 ng/ml and BSA at 0.25%. After 5 h at 37° C., migrated cells were stained with Giemsa and counted using an image analysis software (Easy Image Analysis) from Tekno Optik AB, Sweden. All samples were analysed in at least six parallel wells for each treatment.

Assay [2] concerns primary BCE cells. Description: comparative study pep2/pep3, chemotaxis. The note with it: 100 ng/ml, FGF-2 10 ng/ml. How it is done:
Primary endothelial cells were starved over night in 0.5% normal calf serum. A migration assay was performed in a modified Boyden chamber as described earlier (Auerbach et al., 1991) using micropore polycarbonate filters (8 μm thick, 8 μm pore) coated with type-1 collagen solution at 100 μg/ml (Vitrogen 100, Collagen Corp). Cells were trypsinized and resuspended at 7.5×10^5 cells/ml in Dulbecco's modified essential medium (Invitrogen) containing 0.25% BSA and Trasylol at 1000 KIE. The cell suspension was added in the upper chamber and FGF-2 (10 ng/ml), HRGP (100 ng/ml), peptide 2 or 3 (50 ng/ml) in medium containing 0.25% BSA were added to the lower chamber. The peptides were dissolved in PBS containing a 10-fold molar excess (Zn:peptide) of Zn^2+-acetate. After 5 h at 37° C., cells that had migrated through the filter were stained with Giemsa and counted using the Easy Image Analysis software. All samples were analyzed in at least six wells for each treatment. Results of the study are illustrated in FIG. 7.

The next assay deals with BCE cells. Description: endothelial cell adhesion to matrix proteins. The following applies: HRGP 100 ng/ml, serum-free medium, 45 min. The procedure: BCE cells were detached using non-enzymatic “Cell Dissociation Solution” (Sigma), washed and re-suspended in DMEM/0.1% BSA and FGF-2 (2 ng/ml). The cells were seeded in serum-free medium, with or without HRGP (100 ng/ml), into wells pre-coated with BSA, collagen I, collagen IV, laminin-1 or vitronectin, respectively (CytoMatrix ECM 205 kit, Chemicon). The cells were incubated for 45 (collagen I, collagen IV and vitronectin) or 60 minutes (laminin-1), washed three times in PBS and stained with Hoechst 33342 (1 μg/ml; Molecular Probes). The cells were micro-photographed using the 2× objective and the number of attached cells was counted using the “Easy Image Analysis” software (Tekno Optik). Statistical analysis was performed by ANOVA and Tukeys honestly significant difference (HSD) test. The standard deviation is based on the pooled variance.

Take “HRGP: mature human Histidine Rich Glycoprotein, about 507 amino acid residues”: the “FCS-induced chemotaxis of BCE cells” value with primary BCE cells [1] (100 ng/ml HRGP) was “not inhibited”. For the same substance, the “VEGF-A-induced chemotaxis of BCE cells” value with primary BCE cells [1] (100 ng/ml HRGP, VEGF-A 5 ng/ml) was “inhibited”. Further, the “FGF-2-induced chemotaxis of BCE cells” value with primary BCE cells [1] (100 ng/ml protein, FGF-2 5 ng/ml, 5 h) was “completely arrested”. The “FGF-2-induced chemotaxis of primary BCE cells” value with primary BCE cells [2] is on record as “inhibited”. Besides, in the assay on BCE cells, the “endothelial cell adhesion to vitronectin, collagen I and collagen IV” value is “decreases endothelial cell adhesion”.
